Experimental data: PubChem BioAssay AID1850 (Southern Research Specialized Biocontainment Screening …, 2009)
Where “and” joins values, the source holds several entries; their conditions need not be identical. Identical values can stand only once.

What follows are compounds tested on Salmonella Typhi PhoP-promoter GFP reporter, fluorescence, 4 h (assay: PhoP regulon inhibitors, Salmonella typhi PhoP promoter GFP reporter, confirmatory (AID 1850)).
`CN(C)CCCN1c2ccccc2Sc2ccccc21` showed an IC50 of 114 µM. For `CCCCCCCCCCCCCCCC[N+](C)(C)CC`, the IC50 was 18.6 µM. `C#CCOCCOCCOCCNc1nc(N2CCN(C(=O)CCCCCCCCCCNC(=O)[C@H](CCCCN)n3cc(CCO)nn3)CC2)nc(N2CCN(C(=O)CCCCCCCCCCNC(=O)[C@H](CCCCN)n3cc(CCO)nn3)CC2)n1` gave an IC50 of 60.3 µM. Compound `CCCCCSc1cc(OC)c(CCNC)cc1OC` has an IC50 of 89 µM. Compound `CC(NCc1ccccc1O)C12CC3CC(CC(C3)C1)C2` (configuration not stated) has an IC50 of 34.2 µM. Work on `CC1CCc2cc(F)cc3c(=O)c(C(=O)O)cn1c23` (configuration not stated) yielded an IC50 of 6.15 µM. With `O=C(Oc1c(Cl)cc(Cl)c2cccnc12)c1ccco1` the IC50 was 14.6 µM. `Cc1[nH]cnc1C(=O)N/N=C/c1ccc([N+](=O)[O-])s1` gave an IC50 of 20.4 µM. Work on `O=C(c1ccc([N+](=O)[O-])o1)N1CCOCC1` yielded an IC50 of 76.8 µM. For `CCn1cc(C(=O)O)c(=O)c2cc(F)c(N3CCN(C(=S)NC(=O)c4cccc(C)c4)CC3)cc21`, the IC50 was 16 µM. With `O=C(OCC(=O)N1CCOCC1)c1ccc[nH]c1=O` the IC50 was 36.6 µM. With `COc1ccc(CNc2ncnc3c2[nH]c2ccccc23)cc1` the IC50 was 84.5 µM. With `CN(C)c1ccc(Nc2nc(N)c3ccccc3n2)cc1` the IC50 was 30.9 µM. Compound `O=C(CCN1CCOCC1)N/N=C/c1cc(Br)cc(Br)c1O` has an IC50 of 31.1 µM. `CCCCOc1ccc(NC2=NC3(CCCCC3)N=C(N)N2)cc1` showed an IC50 of 6.52 µM. In the case of `O=C(CCc1ccccc1)NNC(=O)c1ccccn1`, the IC50 is reported as 74 µM. For `CCCCCCCCC1=NCCc2c1[nH]c1ccccc21`, the IC50 was 63.1 µM. `CCn1cc(C(=O)O)c(=O)c2ccc(C)nc21` gave an IC50 of 60.4 µM. `CN(C)CCCNC(=O)c1ccc(-c2nc(-c3ccc(Cl)cc3)cs2)cc1` gave an IC50 of 20.8 µM. Work on `O=C1C(=O)c2ccccc2-c2ccccc21` yielded an IC50 of 20.7 µM. In the case of `Cc1cccc(OCC(O)Cn2c(=N)n(CCN3CCCCC3)c3ccccc32)c1` (configuration not stated), the IC50 is reported as 78.3 µM. Compound `Oc1ccc(Cl)cc1Cc1cc(Cl)ccc1O` has an IC50 of 33.8 µM. `Cc1cc(C)c2sc(N(CCCN(C)C)C(=O)COc3ccc(Cl)cc3)nc2c1` showed an IC50 of 30.8 µM. `Cc1ccccc1Nc1cc(C)c2c(O)cccc2n1` gave an IC50 of 6.42 µM. `O=[N+]([O-])c1ccc(O)c2ncccc12` showed an IC50 of 0.96 µM. Work on `OCCCCNCc1ccc(OCc2ccc(Cl)cc2Cl)cc1` yielded an IC50 of 77.3 µM. With `CCC(=O)N1CCN(c2cc3c(cc2F)c(=O)c(C(=O)O)cn3CC)CC1` the IC50 was 52.3 µM. In the case of `C/C(=C\C(=O)OCCCCCCCCC(=O)O)C[C@@H]1OC[C@H](C[C@@H]2O[C@H]2[C@@H](C)[C@H](C)O)[C@@H](O)[C@H]1O`, the IC50 is reported as 13.1 µM. `C#CCOCCOCCOCCNc1nc(N2CCN(C(=O)C(Cc3ccc(O)cc3)n3cc(C(N)CC(C)C)nn3)CC2)nc(N2CCN(C(=O)C(Cc3cc4ccccc4[nH]3)n3cc(C(N)Cc4ccc(O)cc4)nn3)CC2)n1` (configuration not stated) showed an IC50 of 130 µM. For `COc1c(N2CCN[C@H](C)C2)c(F)cc2c(=O)c(C(=O)O)cn(C3CC3)c12`, the IC50 was < 0.23 µM. For `CC(C)N1CSC(=S)N(Cc2ccccc2)C1`, the IC50 was 108 µM. `Cc1cc(C)c2c(N)c3ccccc3nc2n1` showed an IC50 of 77.3 µM. `O=C(C[n+]1cccc(CNC(=O)c2ccc(OC(F)F)cc2)c1)Nc1ccc(SC(F)F)cc1` gave an IC50 of 83.2 µM. `CCCCCCCCCCOC(=O)Cn1c(COc2cccc(C)c2)[n+](C)c2ccccc21` gave an IC50 of 12.4 µM. Compound `O=C(CCN1CCN(c2ccccc2)CC1)N/N=C/c1ccc([N+](=O)[O-])o1` has an IC50 of 138 µM. Work on `O=c1cc(-c2ccc(O)cc2)oc2c(O)c(O)c(O)c(O)c12` yielded an IC50 of 35.6 µM. For `NC[C@@H]1O[C@H](C23CC4CC(CC(C4)C2)C3)Cc2c1ccc(O)c2O`, the IC50 was 50.1 µM. For `COc1ccc(C(=O)N/N=C/c2sc3ccccc3c2O)cc1`, the IC50 was 73.3 µM. For `O=[N+]([O-])c1cccc(NNS(=O)(=O)c2ccccc2F)c1`, the IC50 was 6.05 µM. For `O=C(Cn1nc(CNc2ccc(Br)cc2)[n+]2c1CCCCC2)c1ccc([N+](=O)[O-])cc1`, the IC50 was 40.1 µM. `CN(C)CCCN1c2ccccc2CCc2ccc(Cl)cc21` showed an IC50 of 102 µM. Compound `C/C(=N\N=C(N)N)c1ccc(Cl)c(Cl)c1` has an IC50 of 78.1 µM. Compound `CC(C)(C)CC(C)(C)c1ccc(OCCOCC[N+](C)(C)Cc2ccccc2)cc1` has an IC50 of 20.4 µM. Compound `Cc1cccc(NC2=NC3(CCCCC3)N=C(N)N2)c1` has an IC50 of 36.8 µM. `c1cnc2c(c1)ccc1cccnc12` was tested, and the IC50 was 49.3 µM and 39.1 µM. `C#CCOCCOCCOCCNc1nc(N2CCN(C(=O)CCCCCCCCCCNC(=O)Cn3cc(CCCCCN)nn3)CC2)nc(N2CCN(C(=O)CCCCCCCCCCNC(=O)[C@H]([C@@H](C)CC)n3cc(CCCCCN)nn3)CC2)n1` gave an IC50 of 38.9 µM. With `CN1CCN(CC(=O)N2CCn3c4c(c5cc(C6CCCCC6)ccc53)CCCC42)CC1` (configuration not stated) the IC50 was 32 µM. Compound `Oc1cccc2ccc(Nc3ccccn3)nc12` has an IC50 of 9.36 µM. `O=S1(=O)CC=C(CSC(=S)NC2CCS(=O)(=O)C2)C1` (configuration not stated) showed an IC50 of 78.4 µM. `O=C(Nc1nnc(-c2ccccn2)o1)c1cccc(Cl)c1` showed an IC50 of 114 µM. `CC[n+]1c(/C=C/C=C/c2ccc(N(C)C)cc2)sc2ccccc21` was tested, and the IC50 was 39.2 µM. `CCn1cc(C(=O)NCc2ccc3c(c2)OCO3)c(=O)c2cc(F)c(N3CCN(C(=O)c4ccco4)CC3)cc21` was tested, and the IC50 was 139 µM. `COc1cc([N+](=O)[O-])cc(/C=N/NC(=O)CSc2ccccn2)c1O` was tested, and the IC50 was 127 µM. In the case of `CC(C)(C)c1ccc(OCCCCCCN2CCNCC2)cc1`, the IC50 is reported as 69.2 µM. `CN1CCN(C2Cc3ccc(Cl)cc3Sc3ccc(F)cc32)CC1` (configuration not stated) showed an IC50 of 37.8 µM. With `CN1CCN(CCCN2c3ccccc3Sc3ccc(C(F)(F)F)cc32)CC1` the IC50 was 46.4 µM. In the case of `COc1cc(CNCCc2c[nH]c3ccccc23)ccc1OCc1ccc(F)cc1`, the IC50 is reported as 50.9 µM.
